Data on ten compounds can be found in US12233057B2, “Small molecules for inhibiting chemokine activity and/or cancer cells growth” (AlonBio Ltd., priority 2015, dated 2025).

One experiment has as its system SDF-1. Briefly: Migration assay: Jurkat cells towards SDF-1 (Transwell). It counts as cell-based, human. The following applies: for Inhibition of SDF-1/CXCR4 mediated migration of Jurkat cells: 1, 5, 10 and 50 μM (FIGS. 19A-B). The method, then:
(§1) 600 μl of RPMI medium was added to the lower chambers of Transwell® transmigration plates, supplemented with 2 μg/ml of MIP3a, 100 ng/ml of SDF-1 or 10 ng/ml of MCP-1. The tested small molecule was added to the lower chambers at the indicated concentration, except in control samples. The MIP3a, SDF-1 or MCP-1 was incubated with the small molecule for 30 minutes at room temperature before the initiation of the migration assay. Following 30 minutes of incubation 2×10^5 immune cells were added to the upper chambers of the transmigration plates in a total volume of 100 μl. Cells which migrated within 3 hours to the bottom chamber of the Transwell® plates were counted using a FACScalibur™ flow cytometer.
To evaluate migration towards SDF-1, Jurkat cells were re-suspended in RPMI medium containing 1% fetal calf serum (FCS).

Another experiment relates to various cancer cells. Briefly: 7-ADD staining of various cancer cells (cell cycle / apoptosis). It counts as cell-based. The following applies: 1 μM, 24-hour incubation, all tested cells (FIG. 29). The method, then:
While further studying the activity of BKT300-3-c5, various cancer cells were incubated with 1 μM BKT300-3-c5, and without it (control), and then stained for 7-ADD.

For the next experiment, the target named is MCP-1 (Homo sapiens, UniProt P13500). Briefly: Migration assay: THP-1 cells towards MCP-1 (Transwell). Format: cell-based. The following applies: 0.1, 0.5, 1 and 10 μM (FIG. 20B). The method, then: as §1
To evaluate migration towards MCP-1, JTHP-1 cells were re-suspended in RPMI medium containing 1% fetal calf serum (FCS).

Experiment [1] concerns MV4-11 human acute myeloid leukemia cells. Briefly: Cancer cell viability assay, propidium iodide staining (FACS). Format: cell-based. Here is the method: (§2) The cancer cells were incubated in cell medium with 1% fetal calf serum (FCS) at a concentration of 2×10^5 cells/well at a final volume of 250 μl in 96-well plate. The tested small molecule was added to the cells at the indicated concentrations. The cells were incubated for 24 hours and the number of dead and viable cells was then evaluated by fluorescence-activated cell sorting (FACS), using propidium iodide (PI) staining. The IC50 of the small molecule-induced cell death was determined using GraphPad Prism software.
In order to assess the effect of BKT300 on cancer cells viability, the in vitro effect on MV4-11 human acute myeloid leukemia cells was evaluated. The MV4-11 cancer cells were incubated in RPMI cell medium with 1% fetal calf serum (FCS) at a concentration of 2×10^5 cells/well at a final volume of 250 μl in 96-well plate. BKT300 was added to the cells at the indicated concentrations. The cells were incubated for 24 hours and the number of dead and viable cells was then evaluated by fluorescence-activated cell sorting (FACS), using propidium iodide (PI) staining. The IC50 of […] cell death was determined using GraphPad Prism software.

Experiment [2] deals with MV4-11, U937, REH, THP-1, NB4, PC-3 and B16-F10 cells. Briefly: Cancer cell viability assay (PI staining), comparison with IPI-145 in all tested cell lines. Format: cell-based. To be noted: 24 hours. Here is the method: as §2
The effect of BKT300-3-c5 on the viability of various cancer cells has been tested, as described under the “method” section hereinabove, and compared to the effect of IPI-145.
FIGS. 22A-B, 23A-B, 24A-B and 25A-B present the effect of BKT300-3-c5 and IPI-145 on various leukemic cells: U937, REH, THP-1 and NB4, respectively.
FIG. 26 presents the effect of BKT300-3-c5 and IPI-145 on prostate cancer PC-3 cells.
FIG. 27 presents the effect of BKT300-3-c5 and IPI-145 on melanoma B16-F10 cells.

For a further experiment, the system named is K562. Briefly: Inhibition of cell growth in additional cancer cell lines. To be noted: Homo sapiens; 1.0 Micromolar; K562, CML. It counts as cell-based.
A further experiment deals with HL60. The description is as above. Format: cell-based. To be noted: Homo sapiens, HL-60; 1.0 Micromolar; HL60, AML.
The test system of the next experiment is RPMI8826. Described as above. It counts as cell-based. To be noted: 1.0 Micromolar; RPMI8826, Myeloma.
For a further experiment, the system named is SU-DHL-4. The experiment is described as above. It counts as cell-based. The following applies: Homo sapiens; 1.0 Micromolar; SU-DHL-4, DLBCL.
Another experiment deals with SU-DHL-6. Described as above. Format: cell-based. To be noted: Homo sapiens; 1.0 Micromolar; SU-DHL-6, DLBCL.
The test system of a further experiment is Farage. Described as above. Format: cell-based. The following applies: 1.0 Micromolar, DLBCL.
In another experiment the test system is Toledo. The experiment is described as above. Format: cell-based. The following applies: Homo sapiens, 1.0 Micromolar, DLBCL.
In the next experiment the test system is OVCAR3. The experiment is described as above. It counts as cell-based. The following applies: Homo sapiens, OVCAR-3; 1.0 Micromolar; OVCAR3, Ovarian.
For the next experiment, the system named is SKNBE. The experiment is described as above. To be noted: 1.0 Micromolar, Neuroblastoma. Format: cell-based.
In the next experiment the test system is H460. The description is as above. To be noted: Homo sapiens, NCI-H460; 1.0 Micromolar; H460, Lung. Format: cell-based.
Another experiment relates to MV4-11 cells. Briefly: Annexin-V and Propidium Iodide staining of MV4-11 cells. Format: cell-based, human. The following applies: 1 μM, 24 hours (FIG. 30). The method, then:
In further studies, apoptosis induction by BKT300-3-c5 was established by incubating MV4-11 cells with and without BKT300-3-c5 (1 μM) for 24 hours, followed by staining the cells for Annexin-V and Propidium Iodide (PI).

The subject of a further experiment is caspase-3. Briefly: Cleaved caspase-3 by Western blot and Elisa in AML cell lines NB4, U937 and MV4-11. Format: cell-based, human. To be noted: 1 μM, 24 hours; NB4, U937 and MV4-11 (FIGS. 31A-C). Here is the method:
In still further studies, the role of caspase-3 (CASP3) in the BKT300-3-c5-induced apoptosis of AML cell lines NB4, U937 and MV4-11 was tested. Cells were incubated with BKT300-3-c5 (1 μM) for 24 hours, and were then tested for the presence of cleaved using mAb against human cleaved caspase 3 by Western blot and Elisa assay to caspase-3.

Experiment [3] deals with U937 cells. Briefly: Cell cycle by 7-AAD assay in U937 cells. To be noted: U937, 24 hours; for Effect on cell cycle: any of the tested concentrations (0.1, 1 and 10 μM). Format: cell-based. Here is the method: (§3) U937 cells were incubated for 24 hours with RPMI medium 1% FCs in the presence of 0.1, 1, and 10 μM of Compounds A1, A3, B1, D1 and BKT300-3-c5, using DMSO as a solvent.
Cell cycle was measured using the 7-AAD assay.

For experiment [4], the system named is U937 cells. Briefly: Apoptosis and cell viability by annexin-V/PI assay in U937 cells. Format: cell-based. The following applies: U937, 24 hours; for Concentration at which an effect on apoptosis was observed / Concentration at which an effect on cell viability was observed: tested 0.1, 1 and 10 μM; for Effect on apoptosis: any of the tested concentrations (0.1, 1 and 10 μM). The method, then: as §3
Apoptosis and cell viability were measured using the annexin-V/PI assay.

In the next experiment the test system is Legionella. The following applies: cited from earlier work.
Another experiment deals with other bacteria. The following applies: Nomura et al., Biol Pharm Bull 2012; cited from earlier work.
The subject of another experiment is metastasis. To be noted: animal studies; Smith et al. 2004; cited from earlier work.
The next experiment has as its system glioblastoma. To be noted: animal studies; Kioi et al. 2010; cited from earlier work.
For experiment [5] the following is noted: animal studies; Wilson et al. 2011; cited from earlier work.

Sequence of MCP-1 (P13500 24-99): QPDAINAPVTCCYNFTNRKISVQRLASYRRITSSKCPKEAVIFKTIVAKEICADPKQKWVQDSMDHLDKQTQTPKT

Take `CCCCCc1cc2cc(O)cc(Oc3c(O)cc(O)c(C(=O)O)c3CCCCC)c2c(=O)o1` [BKT400]: the “Inhibition of migration of Jurkat cells towards SDF-1” value with SDF-1 (1 and 10 μg/ml (FIG. 2C)) was “inhibit”.

For the compound `C[C@H](Nc1ncnc2nc[nH]c12)c1cc2cccc(Cl)c2c(=O)n1-c1ccccc1` [IPI-145, reference compound], in the experiment with various cancer cells, the “Apoptotic cell death, 7-ADD staining” value is “does not affect growth arrest nor apoptosis” and the “Growth arrest (cell cycle), 7-ADD staining” value is listed as “does not affect growth arrest nor apoptosis”.

In the case of `CCCCCC1C(=O)Nc2c(Oc3ccc(OC)cc3OC)cc(OC)cc2C1=O` (stereo not shown) [BKT300-3-c5, 8-(2,4-dimethoxyphenoxy)-6-methoxy-3-pentylquinoline-2,4(1H,3H)-dione], the “Inhibiting SDF-1/CXCR4 mediated migration of Jurkat cells, compared to IPI-145” value in the experiment with SDF-1 (1, 5, 10 and 20 μM (FIG. 20A)) is listed as “more effective that IPI-145”. For the same compound, the “Inhibition of SDF-1/CXCR4 mediated migration of Jurkat cells” value in the experiment with SDF-1 is “inhibition”. For the same compound, the “Inhibiting MCP-1 induced migration of THP-1, compared to IPI-145” value on MCP-1 is given as “more effective that IPI-145”. Also, the IC50 in experiment [1] (Homo sapiens, MV4-11, 24 hour-treatment (FIG. 21B), read-out: IC50, viability of MV4-11 AML cells) turned out to be 850 nM. For the same compound, in experiment [2], the “Reducing the survival of cancer cells, compared to IPI-145” value is “superior effect compared to IPI-145”. The “Apoptotic cell death, 7-ADD staining” value with various cancer cells is recorded as “induce apoptotic cell death”. Also, the “Growth arrest (cell cycle), 7-ADD staining” value in the experiment with various cancer cells is “arrest the growth at the G2M phase”. Moreover, the inhibition at 1 µM in the experiment with K562 turned out to be 71%; in the experiment on HL60, 94.9%; in the experiment on RPMI8826 it was 90.6%; with SU-DHL-4 it was 34%; in the experiment on SU-DHL-6 it was 50%; with Farage, 40%. Also, the inhibition at 1 µM with Toledo amounted to 4%; with OVCAR3 it was 93.7%; in the experiment on SKNBE it was 73%; in the experiment on H460 it was 78%. In addition, the “Apoptosis induction, percentage of viable MV4-11 cells” value with MV4-11 cells is recorded as “reduction in the percentage of viable cells via apoptosis”. The “Cleaved caspase-3 in induced apoptosis” value with caspase-3 was “via caspase-3 activation”. Moreover, the “Concentration at which cell cycle arrest is demonstrated” value in the experiment on U937 cells [3] (tested 0.1, 1 and 10 μM) is 0.1 µM. Moreover, the “Concentration at which an effect on apoptosis was observed” value in the experiment with U937 cells [4] stood at 0.1 µM. For the same compound, in the experiment on U937 cells [4], the “Concentration at which an effect on cell viability was observed” value worked out at 0.1 µM.

For `COc1ccc(Oc2cc(OC)cc3c2NC(=O)CC3=O)c(OC)c1` [Compound A1, 8-(2,4-dimethoxyphenoxy)-6-methoxyquinoline-2,4(1H,3H)-dione], the “Effect on cell cycle” value in the experiment with U937 cells [3] is recorded as “no effect”. Moreover, the Effect on apoptosis result in the experiment on U937 cells [4] is on record as “no effect”.

With `CCCCCC(=O)Cc1cc(O)cc(O)c1Oc1cc(O)cc2cc(CCCCC)oc(=O)c12` [8-(2,4-dihydroxy-6-(2-oxoheptyl)-phenoxy)-6-hydroxy-3-pentyl-1H-isochromen-1-one], the “Antibacterial activity against Legionella” value with Legionella is “potent antibacterial activity”. Further, the “Antibacterial activity against other bacteria” value with other bacteria is recorded as “not against other bacteria”.

Take `CCC1C(=O)Nc2c(Oc3ccc(OC)cc3OC)cc(OC)cc2C1=O` (stereo not shown) [Compound A3, 8-(2,4-dimethoxyphenoxy)-3-ethyl-6-methoxyquinoline-2,4(1H,3H)-dione]: the “Effect on cell cycle” value in the experiment on U937 cells [3] was “no effect”. Moreover, in the experiment with U937 cells [4], the Effect on apoptosis result is on record as “no effect”.

Consider `CCCCCC1C(=O)Nc2c(Oc3ccc(OC)cc3)cc(OC)cc2C1=O` (stereo not shown) [Compound B1, 6-methoxy-8-(4-methoxyphenoxy)-3-pentylquinoline-2,4(1H,3H)-dione], for which, in the experiment on U937 cells [3] (tested 0.1, 1 and 10 μM), the “Concentration at which cell cycle arrest is demonstrated” value amounted to 10 µM and the “Concentration at which some effect on cell cycle is already observed” value came to 1 µM. In the experiment with U937 cells [4], the “Concentration at which an effect on apoptosis was observed” value was determined as 1 µM and the “Concentration at which an effect on cell viability was observed” value stood at 1 µM.

For the compound `c1cc(CN2CCCNCCNCCCNCC2)ccc1CN1CCCNCCNCCCNCC1` [plerixafor], the Effect on metastasis result in the experiment on metastasis is “reduce metastasis”. Further, in the experiment on glioblastoma, the “Effect on recurrence of glioblastoma” value is given as “reduce recurrence of glioblastoma associated with vasculogenesis”. In addition, the “Effect on opioid-induced hyperalgesia” value in experiment [5] is reported as “counteract opioid-induced hyperalgesia”.

Turning to `CCCCCC1C(=O)Nc2c(Oc3ccccc3OC)cc(OC)cc2C1=O` (stereo not shown) [Compound D1, 6-methoxy-8-(2-methoxyphenoxy)-3-pentylquinoline-2,4(1H,3H)-dione], in the experiment on U937 cells [3] (tested 0.1, 1 and 10 μM), the “Concentration at which cell cycle arrest is demonstrated” value came to 1 µM. Moreover, in the experiment with U937 cells [4], the “Concentration at which an effect on apoptosis was observed” value stood at 0.1 µM and the “Concentration at which an effect on cell viability was observed” value is 0.1 µM.

Turning to `CCCCCc1cc(OC)ccc1Oc1cc(OC)cc2c1NC(=O)C(CCCCC)C2=O` (stereo not shown) [BKT300-11-a5, 6-methoxy-8-(4-methoxy-2-pentylphenoxy)-3-pentylquinoline-2,4(1H,3H)-dione], the “Inhibition of SDF-1/CXCR4 mediated migration of Jurkat cells” value in the experiment with SDF-1 is given as “inhibition”. Moreover, the “Effect on the viability of MV4-11 cells” value in [1] (1.328, 6.64, 13.28 and 26.56 μM (FIGS. 28A-B)) is reported as “affect viability”.

By IC50 is commonly meant the concentration that gives 50% inhibition. By inhibition is commonly meant the change of the read-out against control, counted positive when it falls. Lower therefore signals little suppression.
